Data: patent US20150219624A1, “METHODS FOR IDENTIFYING ANTI-CANCER COMPOUNDS” (MEMORIAL SLOAN KETTERING CANCER CENTER, priority 2013, published 2015)

Columns and labels:
[1] = tested on: cap-dependent translation; assay: Dual-luciferase reporter assay (capped vs IRES-driven luciferase); format: cell-based; settings: renilla and firefly luciferase either capped or under control of an IRES element
Experimental: Luciferase assays. Four tandem repeats of the (CGG)4 12-mer motif (GQs) or random sequence matched for length and GC content (random) were cloned into the 5′UTR of Renilla luciferase plasmid pGL4.73. Empty firefly luciferase plasmid pGL4.13 or HCV-IRES firefly were used as internal controls. Luciferase assays were performed using Dual-Luciferase Reporter Assay System (Promega E1960) following the manufacturer's instructions. GQs sequence: […]

KOPTK1 cells = assay: Metabolic labeling of nascent protein with L-azidohomoalanine (AHA); format: cell-based, human; settings: 100 nM; p vs. vehicle 2×10−4
Experimental: (Non-radioactive) Metabolic labeling of nascent protein. KOPTK1 cells were labeled for nascent protein synthesis using Click-iTR AHA (L-azidohomoalanine) metabolic labeling reagent obtained from Invitrogen (cat no. C10102) as per manufacturer's instructions. Briefly, following silvestrol, Cycloheximide or DMSO treated cells were incubated in methionine free medium for 30 min prior to AHA labeling for 1 hr. Cells were fixed with 4% paraformaldehyde in PBS for 15 min, permeablized with 0.25% Triton X-100 in PBS for 15 min followed by one wash with 3% BSA. Cells were then stained using Alexa Fluor 488 Alkyne (Invitrogen cat no. A10267) with Click-iT Cell reaction Buffer Kit (Invitrogen cat no. C10269). Changes in mean fluorescence intensity as a measure of newly synthesized protein was detected by Flow cytometry analysis.
The number of ribosomes occupying a given transcript is given as gene specific RF reads per one million total reads (RPM).
FIG. 10 depicts ribosome profiling quality control data and effects on translation. A and B) Read counts by length of mapped sequence before and after filtering rRNA, linker reads, non-coding RNAs, short mapped sequences (“noisy” reads; see text and method for details). C and D) Read length frequency histograms and mapping analysis of ribosome footprint data after quality control filtering for vehicle treated cells (C) or silvestrol treated cells (D). […]

SMILES | block of cap-dependent versus IRES-dependent translation [1] | max. reduction of nascent protein synthesis (AHA labeling) (KOPTK1 cells) [%]
CC(/C=C/C(C)=C/[C@@H]1Cc2nc(cs2)[C@@H](C)C[C@@H](N)CC(=O)O[C@@H](C)C/C(C)=C/C=C\C(=O)O1)=C\CN(C)C [pateamine A, (3S,6Z,8E,11S,15R,17S)-15-amino-3-[(1E,3E,5E)-7-(dimethylamino)-2,5-dimethylhepta-1,3,5-trienyl]-9,11,17-trimethyl-4,12-dioxa-20-thia-21-azabicyclo[16.2.1]henicosa-1(21),6,8,18-tetraene-5,13-dione] | preferentially block cap-dependent over IRES-dependent translation | 
C[C@@H]1C[C@@H]([C@H](O)CC2CC(=O)NC(=O)C2)C(=O)[C@@H](C)C1 [cycloheximide, Cycloheximide] |  | 80
C[C@H]1C[C@@]2(O[C@H]3C[C@H]4[C@@H]5CC[C@H]6C[C@H](O)CC[C@]6(C)[C@H]5[C@@H](O)C[C@]4(C)[C@H]3[C@@]2(C)O)OC1(C)C [hippuristanol] | preferentially block cap-dependent over IRES-dependent translation | 
